The term melting point denotes the temperature of the solid-liquid transition. `COc1cc(-c2cn([C@H]3CC[C@H](N4CCN(C)CC4)CC3)c3ncnc(N)c23)ccc1NC(=O)OCc1ccccc1.O=C(O)/C=C\C(=O)O.O=C(O)/C=C\C(=O)O.O=C(O)/C=C\C(=O)O` gave a melting point of 146 to 148 °C.

For the compound `Cl.NCCn1cc(-c2ccc(Oc3ccccc3)cc2)c2c(N)ncnc21`, the melting point is 284 to 285 °C.

Compound `NCc1cccnc1-n1cc(-c2ccc(Oc3ccccc3)cc2)c2c(N)ncnc21.O=C(O)/C=C\C(=O)O.O=C(O)/C=C\C(=O)O` yielded a melting point of 131 to 134 °C.

Consider `Cl.Cl.Nc1ncnc2c1c(-c1ccc(Oc3ccccc3)cc1)cn2C1CNOC1` (centres unmarked), for which the melting point is 208 °C (dec.).

As to `Cl.Cl.NCCCCCCCCn1cc(-c2ccc(Oc3ccccc3)cc2)c2c(N)ncnc21.O.O` (hydrate or solvate), the melting point came to 120 °C.

Turning to `Cl.Cl.Nc1ncnc2c1c(-c1ccc(Oc3ccccc3)cc1)cn2C1CCNC1` (centres unmarked) (hydrate or solvate), the melting point was 298 °C (dec.).

Regarding `CN1CCN(C2CCC(n3cc(-c4ccc(Oc5ccccc5)cc4)c4c(N)ncnc43)C2)CC1.O=C(O)/C=C\C(=O)O.O=C(O)/C=C\C(=O)O.O=C(O)/C=C\C(=O)O` (centres unmarked) (hydrate or solvate), the melting point is 168 to 170 °C (dec.).

As for `CN1CCN([C@@H]2CCC[C@H](n3cc(-c4ccc(Oc5ccccc5)cc4)c4c(N)ncnc43)C2)CC1.Cl.Cl.Cl` (relative stereo), the melting point was 224.5 to 226.5 °C (dec.).

`CN1CCN([C@H]2CCC[C@H](n3cc(-c4ccc(Oc5ccccc5)cc4)c4c(N)ncnc43)C2)CC1.Cl.Cl.Cl` (relative stereo) (hydrate or solvate): the melting point is 304 to 306 °C (dec.).

In the case of `Nc1ncnc2c1c(-c1ccc(Oc3ccccc3)cc1)cn2C1CCOC1` (centres unmarked) [Example 22, 5-(4-Phenoxyphenyl)-7-(3-tetrahydrofuryl)-7H-pyrrolo[2,3-d]pyrimidin-4-ylamine], the melting point is 196 to 196.5 °C.

As to `CCN(CC)Cc1ccccc1Oc1ccc(-c2cn(C3CCOC3)c3ncnc(N)c23)cc1` (centres unmarked) [Example 27, 2-[4-(4-Amino-7-(3-tetrahydrofuryl)-7H-pyrrolo[2,3-d]pyrimidin-5-yl)phenoxy]-N,N-diethylbenzylamine], the melting point was in the range of 107 to 110 °C.

`N#Cc1ccccc1Oc1ccc(-c2cn(C3CCOC3)c3ncnc(N)c23)cc1` (centres unmarked) [Example 28, 2-[4-(4-Amino-7-(3-tetrahydrofuryl)-7H-pyrrolo[2,3-d]pyrimidin-5-yl)phenoxy]-benzonitrile] registered a melting point of 201 to 203 °C.

As to `Nc1ncnc2c1c(-c1ccc(Oc3ccccc3C=O)cc1)cn2C1CCOC1` (centres unmarked) [Example 29, 2-[4-(4-Amino-7-(3-tetrahydrofuryl)-7H-pyrrolo[2,3-d)pyrimidin-5-yl)phenoxy]benzaldehyde], the melting point was 185 to 187 °C.

In turn, `Nc1ncnc2c1c(-c1ccc(Oc3ccccc3)cc1)cn2C1COCC1O` (centres unmarked) [Example 30, 4-[4-Amino-5-(4-phenoxyphenyl)-7H-pyrrolo-[2,3-d]pyrimidin-7-yl]tetrahydrofuran-3-ol] showed a melting point of 234.5 to 235.5 °C.

`Nc1ncnc2c1c(-c1ccc(Oc3ccccc3CN3CCOCC3)cc1)cn2C1CCOC1` (centres unmarked) [Example 31, 5-[4-(2-Morpholinomethylphenoxy)phenyl]-7-(3-tetrahydrofuryl)-7H-pyrrolo[2,3-d]pyrimidin-4-ylamine] gave a melting point of 169 to 171 °C.

The compound `Nc1ncnc2c1c(-c1ccc(Oc3ccccc3CN3CCCCC3)cc1)cn2C1CCOC1` (centres unmarked) [Example 32, 5-[4-(2-Piperidinomethylphenoxy)phenyl]-7-(3-tetrahydrofuryl)-7H-pyrrolo[2,3-d]pyrimidin-4-ylamine] came in with a melting point of 76 to 78 °C.

The compound `COCCNCc1ccccc1Oc1ccc(-c2cn(C3CCOC3)c3ncnc(N)c23)cc1` (centres unmarked) [Example 33, 5-{4-[2-(2-Methoxyethyl)aminomethylphenoxy]phenyl}-7-(3-tetrahydrofuryl)-7H-pyrrolo[2,3-d]-pyrimidin-4-ylamine] had a melting point of 66 to 68 °C.

Consider `Nc1ncnc2c1c(-c1ccc(Oc3ccc(F)cc3)cc1)cn2C1CCOC1` (centres unmarked) [Example 35, 5-[4-(4-Fluorophenoxy)phenyl]-7-(3-tetrahydrofuryl)-7H-pyrrolo[2,3-d]pyrimidin-4-ylamine], for which the melting point is 198 to 199 °C.

In turn, `Nc1ncnc2c1c(-c1ccc(Oc3ccc(CN4CCOCC4)cc3)cc1)cn2C1CCOC1` (centres unmarked) [Example 36, 5-[4-(4-Morpholinomethylphenoxy)-phenyl]-7-(3-tetrahydrofuryl)-7H-pyrrolo[2,3-d]pyrimidin-4-ylamine] registered a melting point of 142 to 144 °C.

The compound `Nc1ncnc2c1c(-c1ccc(Oc3cccc(CN4CCOCC4)c3)cc1)cn2C1CCOC1` (centres unmarked) [Example 37, 5-[4-(3-Morpholinomethylphenoxy)phenyl]-7-(3-tetrahydrofuryl)-7H-pyrrolo[2,3-d]pyrimidin-4-ylamine] yielded a melting point of 83 to 85 °C.

Regarding `N#Cc1c(NCCc2ccncc2)cccc1Oc1ccc(-c2cn(C3CCOC3)c3ncnc(N)c23)cc1` (centres unmarked) [Example 38, 2-[4-(4-Amino-7-(3-tetrahydrofuryl)-7H-pyrrolo[2,3-d]pyrimidin-5-yl)phenoxy]-6-(2-(4-pyridyl)ethylamino)-benzonitrile], the melting point fell in the range of 212 to 213 °C.

Regarding `N#Cc1c(NCCCn2ccnc2)cccc1Oc1ccc(-c2cn(C3CCOC3)c3ncnc(N)c23)cc1` (centres unmarked) [Example 39, 2-[4-(4-Amino-7-(3-tetrahydrofuryl)-7H-pyrrolo[2,3-d]pyrimidin-5-yl)phenoxy]-6-(3-imidazol-1-yl)propylaminobenzonitrile], the melting point was 110 °C.

Regarding `Nc1ncnc2c1c(-c1ccc(Oc3ccccc3)cc1)c(Br)n2C1CCOC1` (centres unmarked) [Example 40, 4-Amino-6-bromo-5-(4-phenoxyphenyl)-7-(3-tetrahydrofuryl)-7H-pyrrolo[2,3-d]pyrimidine], the melting point lay in the range of 205 to 206 °C.

`COCCCNc1cccc(Oc2ccc(-c3cn(C4CCOC4)c4ncnc(N)c34)cc2)c1C#N` (centres unmarked) [Example 41, 2-[4-(4-Amino-7-(3-tetrahydrofuryl)-7H-pyrrolo[2,3-d]pyrimidin-5-yl)phenoxy]-6-(3-methoxypropylamino)benzonitrile] came in with a melting point of 183 to 184 °C.

Consider `N#Cc1ccccc1Oc1ccc(-c2cn(C3CCOCC3)c3ncnc(N)c23)cc1` [Example 42, 2-[4-(4-Amino-7-(4-tetrahydropyranyl)-7H-pyrrolo[2,3-d]pyrimidin-5-yl)phenoxy]benzonitrile], for which the melting point was found to be 125 °C.

In the case of `N#Cc1c(OCCN2CCOCC2)cccc1Oc1ccc(-c2cn(C3CCOCC3)c3ncnc(N)c23)cc1` [Example 50, 2-(4-(4-Amino-7-(4-tetrahydropyranyl)-7H-pyrrolo[2,3-d]pyrimidin-5-yl)phenoxy]-6-(2-morpholinoethoxy)benzonitrile], the melting point came out at 110 °C.

The compound `N#Cc1c(NCCc2ccncc2)cccc1Oc1ccc(-c2cn(C3CCOCC3)c3ncnc(N)c23)cc1` [Example 51, 2-[4-(4-Amino-7-(4-tetrahydropyranyl)-7H-pyrrolo[2,3-d]pyrimidin-5-yl)phenoxy]-6-(2-(4-pyridyl)ethylamino)benzonitrile] returned a melting point of 120 to 123 °C.

`COCCCNc1cccc(Oc2ccc(-c3cn(C4CCOCC4)c4ncnc(N)c34)cc2)c1C#N` [Example 52, 2-[4-(4-Amino-7-(4-tetrahydropyranyl)-7H-pyrrolo[2,3-d]pyrimidin-5-yl)phenoxy)-6-(3-methoxypropylamino)benzonitrile] gave a melting point of 205 to 207 °C.

Take `N#Cc1cc(F)ccc1Oc1ccc(-c2cn(C3CCOCC3)c3ncnc(N)c23)cc1` [Example 53, 2-[4-(4-Amino-7-(4-tetrahydropyranyl)-7H-pyrrolo[2,3-d]pyrimidin-5-yl)phenoxy]-5-fluorobenzonitrile]: the melting point was in the range of 216 to 217 °C.

`CCOC(=O)C(C)n1cc(-c2ccc(Oc3ccccc3)cc2)c2c(N)ncnc21` (centres unmarked) [Example 148, Ethyl 2-[4-Amino-5-(4-phenoxyphenyl)-7H-pyrrolo[2,3-d]pyrimidin-7-yl]propionate] showed a melting point of 139 to 140 °C.

`CC(C(=O)NCCN(C)C)n1cc(-c2ccc(Oc3ccccc3)cc2)c2c(N)ncnc21` (centres unmarked) [Example 149, N-(2-Dimethylaminoethyl)-2-[4-amino-5-(4-phenoxyphenyl)-7H-pyrrolo[2,3-d]pyrimidin-7-yl)propionamide] displayed a melting point of 163 to 164 °C.

The compound `CCOC(=O)Cn1cc(-c2ccc(Oc3ccccc3)cc2)c2c(N)ncnc21` [Example 150, Ethyl 2-[4-Amino-5-(4-phenoxyphenyl)-7H-pyrrolo[2,3-d]pyrimidin-7-yl]acetate] returned a melting point of 161 to 161.3 °C.

For the compound `Nc1ncnc2c1c(-c1ccc(Oc3ccccc3)cc1)cn2CC(=O)NCCN1CCNCC1` [Example 152, N-[2-(Piperazin-1-yl)ethyl]-2-[4-amino-5-[4-phenoxyphenyl)-7H-pyrrolo[2,3-d]-pyrimidin-7-yl]acetamide], the melting point lay in the range of 138 to 140 °C.

Take `Nc1ncnc2c1c(-c1ccc(Oc3ccccc3)cc1)cn2CC(=O)NCCN1CCOCC1` [Example 153, N-(2-Morpholinoethyl)-2-[4-amino-5-(4-phenoxyphenyl)-7H-pyrrolo[2,3-d]pyrimidin-7-yl]acetamide]: the melting point is 164 to 165 °C.

Consider `CCN1CCCC1CNC(=O)Cn1cc(-c2ccc(Oc3ccccc3)cc2)c2c(N)ncnc21` (centres unmarked) [Example 155, N-(N-Ethylpyrrolidin-2-ylmethyl)-2-[4-amino-5-(4-phenoxyphenyl)-7H-pyrrolo[2,3-d]-pyrimidin-7-yl]acetamide], for which the melting point was in the range of 122 to 122.5 °C.

On to `Nc1ncnc2c1c(-c1ccc(Oc3ccccc3)cc1)cn2CC(=O)NCCOCCO` [Example 156, N-[-2(2-hydroxyethoxy)ethyl]-2-[4-amino-5-(4-phenoxyphenyl)-7H-pyrrolo[2,3-d]-pyrimidin-7-yl]acetamide], for which the melting point was in the range of 145 to 147 °C.

Take `CC(C(=O)O)n1cc(-c2ccc(Oc3ccccc3)cc2)c2c(N)ncnc21` (centres unmarked) [Example 157, 2-[4-Amino-5-(4-phenoxyphenyl)-7H-pyrrolo[2,3-d]pyrimidin-7-yl]propionic Acid]: the melting point lay within 239.5 to 241 °C.

Turning to `CC(C)(C(N)=O)n1cc(-c2ccc(Oc3ccccc3)cc2)c2c(N)ncnc21` [Example 160, 2-[4-Amino-5-(4-phenoxyphenyl)pyrrolo[2,3-d]pyrimidin-7-yl]-2-methylpropionamide], the melting point lay within 227 to 228 °C.

For the origin of these results see patent publication US6713474B2, “Pyrrolopyrimidines as therapeutic agents” (Abbott GmbH & Co. KG, priority 1998, dated 2004).
